What was measured:
Assay type in all cases: cell-based, S. cerevisiae
Conditions in all cases: 1 uM small molecule, difference to activity without small molecule, average of two trials
LexA rGR2 / B42 eDHFR = target: T1, LexA rGR2 / B42 eDHFR (UniProt P06536+P0ABQ4, C656G/F620S); test: β-galactosidase activity assay, strain V505Y
T1 construct: rat Glucocorticoid Receptor (aa 524-795) with point mutations; expressed in transfected cells; host or cells: S. cerevisiae FY250
T1 sequence (P06536 524-795 F620S/C656G limits assumed): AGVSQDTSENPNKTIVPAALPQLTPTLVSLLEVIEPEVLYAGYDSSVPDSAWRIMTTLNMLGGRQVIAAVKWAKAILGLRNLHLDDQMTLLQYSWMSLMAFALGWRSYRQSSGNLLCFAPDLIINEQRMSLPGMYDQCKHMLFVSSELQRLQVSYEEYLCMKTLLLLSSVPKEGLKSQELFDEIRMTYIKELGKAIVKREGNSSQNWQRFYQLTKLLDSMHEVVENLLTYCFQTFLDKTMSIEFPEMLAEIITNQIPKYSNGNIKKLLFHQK
T1 sequence (P0ABQ4 1-159): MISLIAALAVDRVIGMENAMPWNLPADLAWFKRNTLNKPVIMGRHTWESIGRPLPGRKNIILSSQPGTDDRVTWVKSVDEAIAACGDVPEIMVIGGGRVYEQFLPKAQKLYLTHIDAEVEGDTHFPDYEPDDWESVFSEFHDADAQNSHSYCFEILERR
Description: (§1) Table III explains the components of each strain. Each strain was constructed from the parent yeast strain FY250 and also contains the pMW106 plasmid, which has the LacZ reporter gene that is turned on only in when the LexA DNA binding domain and the B42 activation are brought in tot he vicinity of each other. We use several different strains because we use DHFR from two different species, mDHFR is from murine, while eDHFR is from E. coli. We are asl oable to switch the small moleculebinding domains. For example, the strain containing LexA-eDHFR with B42-rGH2 is a different strain and behaves differently from the strain containing LexA-rGR2 with B42-eDHFR. We also put in short 6 amino acid linkers between the two domains of our protein chimeras and thus these are different strain as well.
(§2) The results in Table IV are averages of two separate trials. Each strain was examined with small molecules and without small molecules. The absolute activity is given as the β-galactisidase activity […]. The average β-galactosidse activity for a strain without small molecule (i.e. the negative control) was about 100 β-galactosidase units.

[1] = target: T2, LexA mDHFR / B42 gly6rGR2 (UniProt P00375+P06536, C656G/F620S); test: β-galactosidase activity assay, strain V496Y
T2 construct: rat Glucocorticoid Receptor (aa 524-795) with point mutations; expressed in transfected cells; host or cells: S. cerevisiae FY250
T2 sequence (P00375 1-187): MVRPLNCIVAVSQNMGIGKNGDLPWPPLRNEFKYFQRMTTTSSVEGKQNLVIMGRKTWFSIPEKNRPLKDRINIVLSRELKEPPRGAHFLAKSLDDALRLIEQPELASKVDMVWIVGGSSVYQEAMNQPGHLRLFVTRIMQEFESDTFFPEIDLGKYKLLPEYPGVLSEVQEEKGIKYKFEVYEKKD
T2 sequence (P06536 524-795 F620S/C656G limits assumed): T1 sequence (P06536 524-795 F620S/C656G limits assumed)
Description: as §1, §2

[2] = target: T3, LexA (GSG)2eDHFR / B42 (GSG)rGR2 (UniProt P06536+P0ABQ4, C656G/F620S); test: β-galactosidase activity assay, strain V501Y
T3 construct: rat Glucocorticoid Receptor (aa 524-795) with point mutations; expressed in transfected cells; host or cells: S. cerevisiae FY250
T3 sequence (P0ABQ4 1-159): T1 sequence (P0ABQ4 1-159)
T3 sequence (P06536 524-795 F620S/C656G limits assumed): T1 sequence (P06536 524-795 F620S/C656G limits assumed)
Description: as §1, §2

[3] = target: T4, LexA (GSG)2rGR2 / B42 (GSG)2eDHFR (UniProt P06536+P0ABQ4, C656G/F620S); test: β-galactosidase activity assay, strain V510Y
T4 construct: rat Glucocorticoid Receptor (aa 524-795) with point mutations; expressed in transfected cells; host or cells: S. cerevisiae FY250
T4 sequence (P06536 524-795 F620S/C656G limits assumed): T1 sequence (P06536 524-795 F620S/C656G limits assumed)
T4 sequence (P0ABQ4 1-159): T1 sequence (P0ABQ4 1-159)
Description: as §1, §2

[4] = target: T5, LexA (GSG)2rGR2 / B42 eDHFR (UniProt P06536+P0ABQ4, C656G/F620S); test: β-galactosidase activity assay, strain V506Y
T5 construct: expressed in transfected cells; host or cells: S. cerevisiae FY250 with pMW106 lacZ reporter
T5 sequence (P06536 524-795 F620S/C656G limits assumed): T1 sequence (P06536 524-795 F620S/C656G limits assumed)
T5 sequence (P0ABQ4 1-159): T1 sequence (P0ABQ4 1-159)
Description: as §1, §2

[5] = target: T6, LexA (GSG)2rGR2 / B42 (GSG)2mDHFR (UniProt P00375+P06536, C656G/F620S); test: β-galactosidase activity assay, strain V512Y
T6 construct: rat Glucocorticoid Receptor (aa 524-795) with point mutations; expressed in transfected cells; host or cells: S. cerevisiae FY250
T6 sequence (P06536 524-795 F620S/C656G limits assumed): T1 sequence (P06536 524-795 F620S/C656G limits assumed)
T6 sequence (P00375 1-187): T2 sequence (P00375 1-187)
Description: as §1, §2

[6] = target: T7, LexA (GSG)2mDHFR / B42 gly6rGR2 (UniProt P00375+P06536, C656G/F620S); test: β-galactosidase activity assay, strain V503Y
T7 construct: expressed in transfected cells; host or cells: S. cerevisiae FY250 with pMW106 lacZ reporter
T7 sequence (P00375 1-187): T2 sequence (P00375 1-187)
T7 sequence (P06536 524-795 F620S/C656G limits assumed): T1 sequence (P06536 524-795 F620S/C656G limits assumed)
Description: as §1, §2

LexA eDHFR / B42 rGR2 = target: T8, LexA eDHFR / B42 rGR2 (UniProt P06536+P0ABQ4, C656G/F620S); test: β-galactosidase activity assay, strain V493Y
T8 construct: rat Glucocorticoid Receptor (aa 524-795) with point mutations; expressed in transfected cells; host or cells: S. cerevisiae FY250
T8 sequence (P0ABQ4 1-159): T1 sequence (P0ABQ4 1-159)
T8 sequence (P06536 524-795 F620S/C656G limits assumed): T1 sequence (P06536 524-795 F620S/C656G limits assumed)
Description: as §1, §2

[7] = target: T9, LexA (GSG)2rGR2 / B42 mDHFR (UniProt P00375+P06536, C656G/F620S); test: β-galactosidase activity assay, strain V508Y
T9 construct: expressed in transfected cells; host or cells: S. cerevisiae FY250 with pMW106 lacZ reporter
T9 sequence (P06536 524-795 F620S/C656G limits assumed): T1 sequence (P06536 524-795 F620S/C656G limits assumed)
T9 sequence (P00375 1-187): T2 sequence (P00375 1-187)
Description: as §1, §2

[8] = target: T10, LexA (GSG)2mDHFR / B42 rGR2 (UniProt P00375+P06536, C656G/F620S); test: β-galactosidase activity assay, strain V502Y
T10 construct: rat Glucocorticoid Receptor (aa 524-795) with point mutations; expressed in transfected cells; host or cells: S. cerevisiae FY250
T10 sequence (P00375 1-187): T2 sequence (P00375 1-187)
T10 sequence (P06536 524-795 F620S/C656G limits assumed): T1 sequence (P06536 524-795 F620S/C656G limits assumed)
Description: as §1, §2

`C[C@@H]1C[C@H]2C3CCC4=CC(=O)C=C[C@]4(C)[C@@]3(F)[C@@H](O)C[C@]2(C)[C@@]1(O)C(=O)NCCSCc1cccc(CSCC[C@H](NC(=O)c2ccc(N(C)Cc3cnc4nc(N)nc(N)c4n3)cc2)C(=O)O)c1` (stereo partly shown) [DM1] was tested, and the B-gal activity (LexA rGR2 / B42 eDHFR) was 557 β-galactosidase units, the B-gal activity [1] was −30 β-galactosidase units and the B-gal activity [2] was 4662 β-galactosidase units. The B-gal activity [3] was 601 β-galactosidase units, the B-gal activity [4] was 519 β-galactosidase units and the B-gal activity [5] was −1 β-galactosidase units. The B-gal activity [6] was −5 β-galactosidase units, the B-gal activity (LexA eDHFR / B42 rGR2) was 5753 β-galactosidase units and the B-gal activity [7] was 0 β-galactosidase units. For the same compound, the B-gal activity [8] was 21 β-galactosidase units.

From patent US7419780B2, “Methods and assays for screening protein targets” (The Trustees of Columbia University in the City of New York, priority 2000, dated 2008)
